Activity calls are given as the source filed them.
Experiments:
[1] = target: Eukaryotic translation initiation factor 4E (Mus musculus, UniProt P63073); assay: eIF4E–eIF4G protein interaction inhibitors, dose response, biochemical, TR-FRET (AID 855); format: functional;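 further: potency for disrupting eIF4E binding to eIF4GI seen as loss of FRET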
[2] = target: T1, Voltage-gated N-type calcium channel alpha-1B subunit/Amyloid beta A4 precursor protein-binding family A member 1 (Homo sapiens, UniProt Q00975+Q02410); format: protein assay
T1 sequence (Q00975 whole entry): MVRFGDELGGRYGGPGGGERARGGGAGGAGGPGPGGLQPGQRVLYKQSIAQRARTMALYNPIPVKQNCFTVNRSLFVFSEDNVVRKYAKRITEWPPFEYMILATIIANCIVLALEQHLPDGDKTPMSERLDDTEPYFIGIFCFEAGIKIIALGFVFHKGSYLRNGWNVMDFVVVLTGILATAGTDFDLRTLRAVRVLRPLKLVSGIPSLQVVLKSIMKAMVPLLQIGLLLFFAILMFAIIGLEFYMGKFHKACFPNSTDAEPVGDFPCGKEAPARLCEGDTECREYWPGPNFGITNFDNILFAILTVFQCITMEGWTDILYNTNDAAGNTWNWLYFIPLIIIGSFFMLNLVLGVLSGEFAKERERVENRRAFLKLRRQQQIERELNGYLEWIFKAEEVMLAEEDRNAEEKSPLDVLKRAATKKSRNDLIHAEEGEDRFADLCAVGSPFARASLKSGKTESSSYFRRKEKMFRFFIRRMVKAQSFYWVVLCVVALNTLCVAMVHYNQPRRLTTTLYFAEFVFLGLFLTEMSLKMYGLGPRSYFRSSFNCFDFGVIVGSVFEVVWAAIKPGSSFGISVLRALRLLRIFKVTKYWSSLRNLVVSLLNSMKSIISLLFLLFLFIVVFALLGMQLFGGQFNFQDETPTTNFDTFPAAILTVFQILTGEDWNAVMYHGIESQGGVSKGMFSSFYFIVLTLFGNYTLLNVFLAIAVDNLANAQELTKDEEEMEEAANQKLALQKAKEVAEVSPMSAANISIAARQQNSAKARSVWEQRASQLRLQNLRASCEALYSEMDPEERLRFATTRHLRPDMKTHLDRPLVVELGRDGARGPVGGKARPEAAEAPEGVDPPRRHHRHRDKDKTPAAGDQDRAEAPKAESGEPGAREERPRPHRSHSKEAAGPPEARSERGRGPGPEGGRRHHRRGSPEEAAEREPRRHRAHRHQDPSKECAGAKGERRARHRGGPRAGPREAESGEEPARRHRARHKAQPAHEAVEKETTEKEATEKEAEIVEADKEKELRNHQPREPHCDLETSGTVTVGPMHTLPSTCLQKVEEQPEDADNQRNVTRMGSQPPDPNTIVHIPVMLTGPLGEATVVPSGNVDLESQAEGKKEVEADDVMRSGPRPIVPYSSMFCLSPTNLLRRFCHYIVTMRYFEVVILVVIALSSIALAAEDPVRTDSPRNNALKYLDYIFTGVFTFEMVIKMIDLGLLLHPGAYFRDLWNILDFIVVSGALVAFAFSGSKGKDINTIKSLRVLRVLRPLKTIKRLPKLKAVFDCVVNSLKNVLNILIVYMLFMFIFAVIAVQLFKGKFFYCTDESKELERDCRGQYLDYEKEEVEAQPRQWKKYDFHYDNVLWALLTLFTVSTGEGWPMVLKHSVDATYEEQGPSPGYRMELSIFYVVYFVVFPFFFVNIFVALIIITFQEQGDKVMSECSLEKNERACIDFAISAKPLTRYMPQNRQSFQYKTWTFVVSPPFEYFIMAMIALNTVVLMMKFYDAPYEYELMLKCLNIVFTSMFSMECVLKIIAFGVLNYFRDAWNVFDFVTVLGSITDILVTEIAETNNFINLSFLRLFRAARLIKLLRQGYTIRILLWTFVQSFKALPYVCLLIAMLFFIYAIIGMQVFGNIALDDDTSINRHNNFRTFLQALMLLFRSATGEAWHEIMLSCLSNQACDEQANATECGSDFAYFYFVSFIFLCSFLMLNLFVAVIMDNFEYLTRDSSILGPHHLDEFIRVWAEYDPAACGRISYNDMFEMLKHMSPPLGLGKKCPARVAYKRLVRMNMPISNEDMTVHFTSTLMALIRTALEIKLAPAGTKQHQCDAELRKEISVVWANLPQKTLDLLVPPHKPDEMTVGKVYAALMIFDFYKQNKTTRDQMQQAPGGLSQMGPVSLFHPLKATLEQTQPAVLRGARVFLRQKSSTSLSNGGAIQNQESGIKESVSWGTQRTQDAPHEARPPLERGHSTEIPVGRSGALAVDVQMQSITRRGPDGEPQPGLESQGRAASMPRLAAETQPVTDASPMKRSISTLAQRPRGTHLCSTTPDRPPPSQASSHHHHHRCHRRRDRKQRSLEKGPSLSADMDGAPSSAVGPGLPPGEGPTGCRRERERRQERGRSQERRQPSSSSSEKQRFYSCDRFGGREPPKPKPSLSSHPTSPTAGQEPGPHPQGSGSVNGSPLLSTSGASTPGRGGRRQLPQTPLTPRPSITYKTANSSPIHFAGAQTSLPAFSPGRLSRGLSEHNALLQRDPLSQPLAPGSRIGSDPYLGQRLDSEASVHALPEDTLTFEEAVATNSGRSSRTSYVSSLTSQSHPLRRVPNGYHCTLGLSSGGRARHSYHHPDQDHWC
T1 sequence (Q02410 whole entry): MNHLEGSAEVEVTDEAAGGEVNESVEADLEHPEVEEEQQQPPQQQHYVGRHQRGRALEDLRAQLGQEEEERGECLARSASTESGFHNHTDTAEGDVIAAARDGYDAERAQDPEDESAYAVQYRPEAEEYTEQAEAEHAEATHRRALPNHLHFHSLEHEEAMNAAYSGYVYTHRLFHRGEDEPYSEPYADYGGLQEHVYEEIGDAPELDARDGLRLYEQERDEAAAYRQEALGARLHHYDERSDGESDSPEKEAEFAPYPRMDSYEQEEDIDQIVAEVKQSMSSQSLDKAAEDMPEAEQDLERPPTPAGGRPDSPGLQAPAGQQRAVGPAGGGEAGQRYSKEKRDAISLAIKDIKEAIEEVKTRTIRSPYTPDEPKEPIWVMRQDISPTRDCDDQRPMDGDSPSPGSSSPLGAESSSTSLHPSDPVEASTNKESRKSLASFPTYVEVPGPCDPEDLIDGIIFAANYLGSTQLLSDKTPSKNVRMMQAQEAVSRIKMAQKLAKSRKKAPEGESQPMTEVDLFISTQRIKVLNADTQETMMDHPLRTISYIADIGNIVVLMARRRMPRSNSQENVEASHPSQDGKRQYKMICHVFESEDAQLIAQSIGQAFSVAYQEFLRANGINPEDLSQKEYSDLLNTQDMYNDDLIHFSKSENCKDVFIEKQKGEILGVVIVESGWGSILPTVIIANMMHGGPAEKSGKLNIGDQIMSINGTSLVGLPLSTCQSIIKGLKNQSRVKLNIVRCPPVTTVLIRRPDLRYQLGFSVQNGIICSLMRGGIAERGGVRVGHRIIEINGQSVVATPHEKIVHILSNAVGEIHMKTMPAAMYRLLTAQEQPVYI

[3] = target: T1, Voltage-gated N-type calcium channel alpha-1B subunit/Amyloid beta A4 precursor protein-binding family A member 1; format: protein assay; remark: listed apart in the source
[4] = target: T2, Eukaryotic translation initiation factor 2-alpha kinase 3 (Homo sapiens, UniProt Q9NZJ5); assay: Dose response cell-based high-throughput screening assay to measure PERK inhibition. [Related pubchem assays: 1416 ]; format: functional
T2 sequence (Q9NZJ5 whole entry): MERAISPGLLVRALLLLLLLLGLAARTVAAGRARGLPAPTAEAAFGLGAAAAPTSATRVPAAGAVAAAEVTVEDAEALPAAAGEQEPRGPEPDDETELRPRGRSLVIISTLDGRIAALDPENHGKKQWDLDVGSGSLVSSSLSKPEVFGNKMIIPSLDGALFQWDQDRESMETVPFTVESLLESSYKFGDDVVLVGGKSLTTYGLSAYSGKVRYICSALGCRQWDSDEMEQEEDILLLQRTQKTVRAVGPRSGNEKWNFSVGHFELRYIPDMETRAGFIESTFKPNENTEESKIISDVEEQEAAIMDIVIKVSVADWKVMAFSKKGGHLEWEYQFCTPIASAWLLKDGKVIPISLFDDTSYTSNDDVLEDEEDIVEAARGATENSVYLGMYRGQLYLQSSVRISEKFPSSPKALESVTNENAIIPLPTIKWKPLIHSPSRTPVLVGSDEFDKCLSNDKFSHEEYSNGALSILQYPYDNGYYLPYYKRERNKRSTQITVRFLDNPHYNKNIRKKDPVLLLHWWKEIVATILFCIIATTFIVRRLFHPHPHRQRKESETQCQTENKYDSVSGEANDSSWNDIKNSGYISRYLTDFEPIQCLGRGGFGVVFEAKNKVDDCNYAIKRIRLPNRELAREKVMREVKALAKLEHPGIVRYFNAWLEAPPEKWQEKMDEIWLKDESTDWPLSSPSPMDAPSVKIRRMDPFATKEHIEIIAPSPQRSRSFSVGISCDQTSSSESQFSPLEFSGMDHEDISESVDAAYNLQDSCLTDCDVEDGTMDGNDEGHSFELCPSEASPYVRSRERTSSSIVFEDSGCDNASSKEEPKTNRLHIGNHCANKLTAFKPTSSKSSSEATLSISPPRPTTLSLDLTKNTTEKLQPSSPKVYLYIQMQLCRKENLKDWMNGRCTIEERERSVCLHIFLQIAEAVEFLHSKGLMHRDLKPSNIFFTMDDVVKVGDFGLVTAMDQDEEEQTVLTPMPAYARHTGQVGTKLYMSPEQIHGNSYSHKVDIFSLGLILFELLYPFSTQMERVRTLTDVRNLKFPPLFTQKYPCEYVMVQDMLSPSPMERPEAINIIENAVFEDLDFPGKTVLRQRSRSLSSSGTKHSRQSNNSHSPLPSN

[5] = target: T2, Eukaryotic translation initiation factor 2-alpha kinase 3; assay: Counterscreen assay for PERK inhibitors: Dose response cell-based high throughput screening assay to measure inhibition of PERK at 6 hours. [Related pubchem assays: 1522, 1416 ]; format: functional
A-375 = assay: MITF: Counter assay: A375 proliferation Measured in Cell-Based System Using Plate Reader - 2084-03_Inhibitor_Dose_DryPowder_Activity. [Related pubchem assays (depositor defined):AID488944]; format: functional; settings: Homo sapiens
Vero [6] = assay: cells; format: functional; settings: Chlorocebus sabaeus
HEK293 [7] = assay: NOD1 signaling inhibitors, primary screen, cell-based, luminescence, uHTS (AID 1578); format: functional; settings: Homo sapiens
HEK293 [8] = assay: cells; format: functional, cell-based; settings: Homo sapiens
HEK293 [9] = assay: cells; format: functional, cell-based; settings: Homo sapiens; remark: listed apart in the source
HEK293 [10] = assay: cells; format: functional, cell-based; settings: Homo sapiens; remark: listed apart in the source
[11] = target: Nucleotide-binding oligomerization domain-containing protein 2 (Homo sapiens, UniProt Q9HC29); assay: NOD2 signaling inhibitors, cell-based, luminescence, uHTS, HEK293 (AID 1566); format: functional
[12] = target: T3, Microphthalmia-associated transcription factor (Homo sapiens, UniProt O75030); assay: TRPM1 promoter luciferase signal decrease, dose response, MITF inhibitor project, cell-based, SK-MEL-5, cherry-picked, set 3 (AID 493073); format: functional
T3 sequence (O75030 whole entry): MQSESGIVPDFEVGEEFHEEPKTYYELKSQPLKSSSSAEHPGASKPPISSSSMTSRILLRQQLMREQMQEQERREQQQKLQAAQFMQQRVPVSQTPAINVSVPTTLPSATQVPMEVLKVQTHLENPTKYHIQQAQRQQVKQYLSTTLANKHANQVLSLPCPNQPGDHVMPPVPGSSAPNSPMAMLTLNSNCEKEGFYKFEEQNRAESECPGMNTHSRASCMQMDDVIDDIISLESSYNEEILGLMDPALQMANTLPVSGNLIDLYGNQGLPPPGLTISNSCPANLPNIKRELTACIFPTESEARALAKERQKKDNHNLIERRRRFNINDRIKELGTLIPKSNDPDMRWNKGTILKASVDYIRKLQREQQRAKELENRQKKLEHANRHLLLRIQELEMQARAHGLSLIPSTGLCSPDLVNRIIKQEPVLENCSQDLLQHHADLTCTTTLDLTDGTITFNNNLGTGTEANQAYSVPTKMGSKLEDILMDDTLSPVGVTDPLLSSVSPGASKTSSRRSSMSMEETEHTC

HEK293 [13] = assay: NOD2 signaling inhibitors in MDP-stimulated cells, cell-based, uHTS, luminescence (AID 2001); format: functional; settings: Homo sapiens
Vero [14] = assay: cells; format: functional, cell-based; settings: Chlorocebus sabaeus
[15] = cytotoxicity in HEK-293T cells, dose response, cytotoxicity control for BCR NF-kB inhibitor project, luminescence, B-cell screen hits (AID 489021); format: functional, cell-based;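 further: HEK-293T cells carrying an NF-kB luciferase reporter; cells exposed to compound for about 14 hours before viability readout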
CAAX prenyl protease 2 = target: T4, CAAX prenyl protease 2 (Saccharomyces cerevisiae S288c, UniProt Q03530); format: biochemical
T4 sequence (Q03530 whole entry): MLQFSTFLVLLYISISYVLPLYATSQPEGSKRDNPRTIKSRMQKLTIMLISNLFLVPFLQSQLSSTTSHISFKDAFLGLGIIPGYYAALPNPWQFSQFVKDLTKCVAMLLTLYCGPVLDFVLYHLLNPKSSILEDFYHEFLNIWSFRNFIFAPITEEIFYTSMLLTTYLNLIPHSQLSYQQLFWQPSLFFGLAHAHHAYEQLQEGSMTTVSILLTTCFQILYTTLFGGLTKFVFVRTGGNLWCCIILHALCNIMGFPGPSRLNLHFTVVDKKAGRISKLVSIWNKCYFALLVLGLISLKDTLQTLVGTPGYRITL

Protein RecA = target: T5, Protein RecA (Mycobacterium tuberculosis, UniProt P9WHJ3); assay: Fluorescence Cell-Free Homogeneous Dose Retest to Identify Inhibitors of RecA-Intein Splicing Activity. [Related pubchem assays (depositor defined):AID2097, AID2223, AID489010, AID492950]; format: functional
T5 sequence (P9WHJ3 whole entry): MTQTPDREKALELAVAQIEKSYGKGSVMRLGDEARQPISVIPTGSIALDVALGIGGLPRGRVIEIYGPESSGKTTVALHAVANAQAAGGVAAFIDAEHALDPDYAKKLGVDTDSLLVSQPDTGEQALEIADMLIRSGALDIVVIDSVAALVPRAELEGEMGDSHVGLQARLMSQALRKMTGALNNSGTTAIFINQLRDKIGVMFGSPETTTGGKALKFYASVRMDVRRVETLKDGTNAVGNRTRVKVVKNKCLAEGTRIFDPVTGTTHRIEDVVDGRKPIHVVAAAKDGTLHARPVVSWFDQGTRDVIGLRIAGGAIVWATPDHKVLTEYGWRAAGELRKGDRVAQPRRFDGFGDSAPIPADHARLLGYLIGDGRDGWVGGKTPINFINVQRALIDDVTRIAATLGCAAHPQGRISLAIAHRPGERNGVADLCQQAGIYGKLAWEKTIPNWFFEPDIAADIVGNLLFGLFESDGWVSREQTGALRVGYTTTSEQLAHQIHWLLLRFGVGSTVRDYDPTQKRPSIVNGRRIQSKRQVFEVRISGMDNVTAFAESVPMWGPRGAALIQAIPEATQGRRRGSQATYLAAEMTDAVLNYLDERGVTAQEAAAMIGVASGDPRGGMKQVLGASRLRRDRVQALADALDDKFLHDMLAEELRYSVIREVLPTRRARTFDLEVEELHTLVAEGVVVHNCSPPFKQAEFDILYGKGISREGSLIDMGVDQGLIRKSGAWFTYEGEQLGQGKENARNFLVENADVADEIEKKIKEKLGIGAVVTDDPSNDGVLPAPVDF

[16] = target: Glyceraldehyde-3-phosphate dehydrogenase (Homo sapiens, UniProt P04406)
Chain of Glyceraldehyde-3-phosphate dehydrogenase (P04406 whole entry): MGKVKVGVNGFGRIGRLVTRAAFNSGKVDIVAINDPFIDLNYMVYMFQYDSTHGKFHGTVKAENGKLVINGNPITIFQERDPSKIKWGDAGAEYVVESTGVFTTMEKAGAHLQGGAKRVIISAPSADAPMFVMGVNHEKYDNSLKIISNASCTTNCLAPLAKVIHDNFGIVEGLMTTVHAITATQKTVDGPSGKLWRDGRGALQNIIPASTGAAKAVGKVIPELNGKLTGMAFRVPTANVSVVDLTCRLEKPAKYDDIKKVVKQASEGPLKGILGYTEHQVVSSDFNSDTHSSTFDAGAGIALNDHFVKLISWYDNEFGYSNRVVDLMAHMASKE

[17] = target: Alkaline phosphatase, placental type (Homo sapiens, UniProt P05187); assay: PLAP enzyme inhibitors, confirmation, biochemical, luminescence (AID 1512); format: functional
Chain of Alkaline phosphatase, placental type (P05187 whole entry): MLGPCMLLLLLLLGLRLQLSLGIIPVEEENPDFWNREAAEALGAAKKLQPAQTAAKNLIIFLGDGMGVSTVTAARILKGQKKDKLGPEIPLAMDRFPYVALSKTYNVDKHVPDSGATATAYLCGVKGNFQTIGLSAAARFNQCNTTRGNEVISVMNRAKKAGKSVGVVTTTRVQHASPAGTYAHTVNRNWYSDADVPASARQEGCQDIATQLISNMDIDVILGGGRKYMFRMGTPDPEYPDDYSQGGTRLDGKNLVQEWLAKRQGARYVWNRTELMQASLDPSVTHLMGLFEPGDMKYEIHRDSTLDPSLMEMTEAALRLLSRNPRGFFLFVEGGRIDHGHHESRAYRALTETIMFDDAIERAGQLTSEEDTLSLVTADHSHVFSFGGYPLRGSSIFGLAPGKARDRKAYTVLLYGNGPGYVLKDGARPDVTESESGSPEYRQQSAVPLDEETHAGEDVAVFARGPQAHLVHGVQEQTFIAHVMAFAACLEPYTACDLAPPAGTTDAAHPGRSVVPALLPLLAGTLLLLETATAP

[18] = target: T6, Alkaline phosphatase, tissue-nonspecific isozyme (Homo sapiens, UniProt P05186); assay: human TNAP enzyme inhibitors, SAR follow-up, biochemical, luminescent, dose response (AID 1056)
T6 sequence (P05186 whole entry): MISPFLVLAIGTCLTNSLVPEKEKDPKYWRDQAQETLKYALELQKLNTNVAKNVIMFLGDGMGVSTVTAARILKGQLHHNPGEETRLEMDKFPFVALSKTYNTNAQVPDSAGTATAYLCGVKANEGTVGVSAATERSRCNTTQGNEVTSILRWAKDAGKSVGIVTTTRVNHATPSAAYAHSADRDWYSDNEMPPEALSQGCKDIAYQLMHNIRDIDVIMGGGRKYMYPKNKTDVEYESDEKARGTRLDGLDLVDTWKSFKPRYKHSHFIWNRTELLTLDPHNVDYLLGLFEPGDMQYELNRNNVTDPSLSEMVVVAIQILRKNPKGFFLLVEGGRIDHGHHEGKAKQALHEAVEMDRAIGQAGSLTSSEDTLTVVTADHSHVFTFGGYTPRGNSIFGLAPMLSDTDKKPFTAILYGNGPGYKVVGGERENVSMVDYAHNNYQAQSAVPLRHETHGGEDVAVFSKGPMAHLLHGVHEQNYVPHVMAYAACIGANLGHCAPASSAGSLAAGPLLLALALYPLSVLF

[19] = target: T7, Replicative DNA helicase DnaB (Mycobacterium tuberculosis, UniProt P9WMR3); assay: DnaB intein splicing inhibitors, dose response, biochemical, cell-free fluorescence (AID 449749); format: functional
T7 sequence (P9WMR3 whole entry): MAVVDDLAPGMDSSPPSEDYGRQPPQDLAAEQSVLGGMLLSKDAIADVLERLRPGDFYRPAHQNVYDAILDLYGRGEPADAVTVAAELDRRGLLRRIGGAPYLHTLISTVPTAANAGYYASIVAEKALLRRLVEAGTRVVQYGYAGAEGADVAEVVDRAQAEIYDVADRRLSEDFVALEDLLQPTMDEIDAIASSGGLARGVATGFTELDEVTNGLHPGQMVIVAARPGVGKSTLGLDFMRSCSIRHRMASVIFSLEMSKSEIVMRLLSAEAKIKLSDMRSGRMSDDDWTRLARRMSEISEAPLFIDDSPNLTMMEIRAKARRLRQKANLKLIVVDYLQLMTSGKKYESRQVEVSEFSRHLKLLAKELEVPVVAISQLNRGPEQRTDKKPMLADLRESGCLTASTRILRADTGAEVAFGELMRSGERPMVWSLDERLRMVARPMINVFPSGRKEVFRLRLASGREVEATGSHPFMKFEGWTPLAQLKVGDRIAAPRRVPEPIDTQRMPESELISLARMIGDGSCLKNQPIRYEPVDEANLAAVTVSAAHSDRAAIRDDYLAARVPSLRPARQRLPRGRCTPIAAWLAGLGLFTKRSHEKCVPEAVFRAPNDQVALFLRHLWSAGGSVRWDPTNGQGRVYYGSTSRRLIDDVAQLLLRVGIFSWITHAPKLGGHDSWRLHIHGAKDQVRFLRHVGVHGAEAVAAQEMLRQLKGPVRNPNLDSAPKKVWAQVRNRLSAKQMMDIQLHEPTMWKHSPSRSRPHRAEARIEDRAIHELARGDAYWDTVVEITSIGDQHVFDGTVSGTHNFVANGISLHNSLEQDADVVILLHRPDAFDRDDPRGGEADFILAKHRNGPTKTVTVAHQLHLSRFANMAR

Chain of Eukaryotic translation initiation factor 4E (P63073 whole entry): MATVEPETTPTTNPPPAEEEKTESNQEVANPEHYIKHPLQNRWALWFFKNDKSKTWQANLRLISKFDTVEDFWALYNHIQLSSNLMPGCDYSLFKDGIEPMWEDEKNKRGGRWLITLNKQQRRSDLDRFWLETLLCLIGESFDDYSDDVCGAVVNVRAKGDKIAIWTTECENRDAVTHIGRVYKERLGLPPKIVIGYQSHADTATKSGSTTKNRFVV

Structure (SMILES): O=C(NC1CCCCC1)C1CCN(c2cnccn2)CC1
- IC50 [1]: > 64 µM (inactive)

Structure (SMILES): Cc1cc(C)c2c(=O)n(CC(=O)N3CCC(Cc4ccccc4)CC3)sc2n1
- IC50 [2]: > 50 µM (inactive)
- IC50 [3]: 15.5 µM (active)

Structure (SMILES): COc1ccc2c3c([nH]c2c1)C1CC2C(CC(O)C(OC)C2CO)CN1CC3 (stereo not given)
- EC50 [4]: > 55.7 µM (not active)
- EC50 [5]: > 55.7 µM (not active)

Structure (SMILES): CC1CCCCC1NC(=O)/C(C#N)=C/C=C/c1ccccc1[N+](=O)[O-] (stereo not given)
- AC50 (A-375): 31.9 µM (active)
- CC50 (Vero [6]): 15.6 µM (active)
- EC50 (HEK293 [7]): > 20 µM (inactive)
- IC50 (HEK293 [8]): > 20 µM (inactive)
- IC50 (HEK293 [9]): 3.59 µM (active)
- IC50 (HEK293 [10]): > 20 µM (inactive)
- EC50 [11]: > 20 µM (inactive)
- AC50 [12]: 7.92 µM (active)
- IC50 (HEK293 [13]): 4.85 µM (inactive)
- IC50 (Vero [14]): 13.3 µM (active)

Structure (SMILES): CN1C(=O)C(Cl)(Cl)C(=O)c2ccccc21
- IC50 [2]: 2.75 µM (active)
- IC50 [3]: 34.5 µM (active)

Structure (SMILES): CC(C)c1ccc(/C=C2\SC(=S)N(CCC(=O)NCCCn3ccnc3)C2=O)cc1
- IC50 [15]: > 80 µM (inactive)
- AC50 (CAAX prenyl protease 2): > 100 µM (inactive)

Structure (SMILES): CCCc1c(O)oc2nnc(C)c-2c1C
- EC50 (Protein RecA): 14.8 µM (active)
- IC50 [16]: > 100 µM (not active)
- IC50 [17]: > 100 µM (inactive)
- IC50 [18]: > 100 µM (inactive)
- AC50 [19]: 23.6 µM (active)

Structure (SMILES): CC1CCCCN1C(=O)Cn1c(=O)n(-c2ccc(F)cc2)c(=O)c2sccc21 (stereo not given)
- IC50 [1]: 50 µM (inactive)

Structure (SMILES): CC(C)c1nc(N)nn1-c1ccccc1
- IC50 [16]: > 100 µM (not active)
- IC50 [17]: > 100 µM (inactive)
- IC50 [18]: > 100 µM (inactive)

Structure (SMILES): O=C(CNc1ccncc1)c1ccc(O)c(O)c1
- IC50 [17]: > 100 µM (inactive)
- IC50 [18]: > 100 µM (inactive)

Reference: ChEMBL document CHEMBL1201862, “PubChem BioAssay data set” (2004)
